Experimental data: patent publication US7574340B2 (priority 2003, dated 2009)

Columns and labels:
BoNT/A LC [1] = target: T1, BoNT/A LC (Clostridium botulinum, UniProt P0DPI0); test: biochemical; type: biochemical
BoNT/A LC [2] = target: T1, BoNT/A LC; details: cited from earlier work
anthrax lethal factor = anthrax lethal factor (Bacillus anthracis, UniProt P15917); type: biochemical
[3] = target: BoNT serotype B light chain (BoNT/B LC) (Clostridium botulinum, UniProt P10844); type: biochemical
BoNT serotype B light chain (BoNT/B LC), sequence (P10844 2-441 limits assumed): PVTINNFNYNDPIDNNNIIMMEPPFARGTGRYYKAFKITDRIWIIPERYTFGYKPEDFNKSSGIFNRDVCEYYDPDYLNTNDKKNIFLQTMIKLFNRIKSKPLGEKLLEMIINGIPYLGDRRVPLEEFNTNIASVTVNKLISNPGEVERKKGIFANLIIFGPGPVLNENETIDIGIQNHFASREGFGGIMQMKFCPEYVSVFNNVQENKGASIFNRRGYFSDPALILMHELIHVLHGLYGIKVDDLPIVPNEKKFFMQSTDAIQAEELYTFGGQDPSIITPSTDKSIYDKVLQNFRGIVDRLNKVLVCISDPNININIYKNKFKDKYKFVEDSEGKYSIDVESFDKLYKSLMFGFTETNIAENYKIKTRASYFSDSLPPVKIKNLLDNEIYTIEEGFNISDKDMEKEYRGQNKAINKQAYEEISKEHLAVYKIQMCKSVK

BoNT/A holotoxin = BoNT/A holotoxin (Clostridium botulinum, UniProt P0DPI0); details: 3.3 μM; cited from earlier work
BoNT/A holotoxin, sequence (P0DPI0 2-448 limits assumed): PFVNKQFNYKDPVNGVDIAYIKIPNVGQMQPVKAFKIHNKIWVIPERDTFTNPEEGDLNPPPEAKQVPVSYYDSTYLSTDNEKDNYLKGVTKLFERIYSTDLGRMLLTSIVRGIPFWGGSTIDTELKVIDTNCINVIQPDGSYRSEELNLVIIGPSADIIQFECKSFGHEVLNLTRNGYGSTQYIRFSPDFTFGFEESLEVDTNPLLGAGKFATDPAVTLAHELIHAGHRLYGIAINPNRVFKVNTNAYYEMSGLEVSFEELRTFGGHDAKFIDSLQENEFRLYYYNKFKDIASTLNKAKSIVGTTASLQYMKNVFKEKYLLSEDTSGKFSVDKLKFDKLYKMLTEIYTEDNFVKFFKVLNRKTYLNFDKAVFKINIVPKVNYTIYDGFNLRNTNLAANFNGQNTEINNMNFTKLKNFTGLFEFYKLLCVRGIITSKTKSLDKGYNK
BoNT/A holotoxin, sequence (P0DPI0 449-1296 limits assumed): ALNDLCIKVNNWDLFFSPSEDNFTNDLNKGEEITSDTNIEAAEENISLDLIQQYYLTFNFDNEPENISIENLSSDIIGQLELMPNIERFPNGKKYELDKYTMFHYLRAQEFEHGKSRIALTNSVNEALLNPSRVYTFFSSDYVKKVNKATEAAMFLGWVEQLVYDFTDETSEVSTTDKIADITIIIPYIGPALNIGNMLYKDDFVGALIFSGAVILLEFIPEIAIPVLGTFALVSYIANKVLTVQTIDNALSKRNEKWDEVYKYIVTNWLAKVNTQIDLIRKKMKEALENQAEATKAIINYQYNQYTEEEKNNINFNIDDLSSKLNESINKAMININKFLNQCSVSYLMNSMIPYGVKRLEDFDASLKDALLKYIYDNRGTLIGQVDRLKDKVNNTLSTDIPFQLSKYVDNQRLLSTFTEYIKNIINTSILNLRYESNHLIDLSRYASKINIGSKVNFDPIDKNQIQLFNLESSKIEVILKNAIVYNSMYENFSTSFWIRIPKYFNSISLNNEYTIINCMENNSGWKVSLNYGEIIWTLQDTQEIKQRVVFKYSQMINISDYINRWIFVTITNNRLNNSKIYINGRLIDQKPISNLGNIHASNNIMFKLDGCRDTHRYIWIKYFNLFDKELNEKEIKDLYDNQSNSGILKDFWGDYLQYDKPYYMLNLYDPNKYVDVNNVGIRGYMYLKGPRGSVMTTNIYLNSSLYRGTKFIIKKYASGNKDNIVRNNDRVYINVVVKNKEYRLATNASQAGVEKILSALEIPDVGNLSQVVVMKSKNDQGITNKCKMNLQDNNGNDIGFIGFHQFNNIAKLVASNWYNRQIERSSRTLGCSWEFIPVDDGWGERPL

T1 sequence (P0DPI0 2-448 limits assumed): as the sequence (P0DPI0 2-448 limits assumed) above
anthrax lethal factor, sequence (P15917 34-809 limits assumed): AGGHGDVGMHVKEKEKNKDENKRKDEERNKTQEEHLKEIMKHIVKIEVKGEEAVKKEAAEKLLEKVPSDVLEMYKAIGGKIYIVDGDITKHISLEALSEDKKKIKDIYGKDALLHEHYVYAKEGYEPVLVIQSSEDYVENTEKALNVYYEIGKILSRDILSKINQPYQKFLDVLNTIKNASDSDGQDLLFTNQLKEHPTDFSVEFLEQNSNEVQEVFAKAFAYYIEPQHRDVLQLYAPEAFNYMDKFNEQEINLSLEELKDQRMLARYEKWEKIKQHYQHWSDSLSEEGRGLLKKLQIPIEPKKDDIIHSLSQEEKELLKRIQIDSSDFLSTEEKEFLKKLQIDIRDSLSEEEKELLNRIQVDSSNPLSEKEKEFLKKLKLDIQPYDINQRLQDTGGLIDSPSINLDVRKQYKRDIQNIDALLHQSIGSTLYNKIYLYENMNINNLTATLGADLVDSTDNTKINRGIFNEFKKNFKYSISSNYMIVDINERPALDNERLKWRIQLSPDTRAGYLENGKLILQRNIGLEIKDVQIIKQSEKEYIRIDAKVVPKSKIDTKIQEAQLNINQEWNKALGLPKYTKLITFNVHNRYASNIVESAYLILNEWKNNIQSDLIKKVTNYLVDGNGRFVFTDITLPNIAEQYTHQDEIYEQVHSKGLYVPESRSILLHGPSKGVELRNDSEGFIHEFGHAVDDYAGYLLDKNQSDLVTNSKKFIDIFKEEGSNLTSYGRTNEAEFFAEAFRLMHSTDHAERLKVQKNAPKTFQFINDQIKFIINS

## O=C(O)c1c(I)c(I)c(I)c(I)c1C1c2ccc(O)cc2Oc2cc(O)ccc21 [NSC 119889]
BoNT/A LC [1]
  inhibition at 20 µM: 56%

## NCCCC[C@H](N[C@@H](CCc1ccccc1)C(=O)O)C(=O)N1CCC[C@H]1C(=O)O [lysinopril]
BoNT/A LC [2]
  BoNT/A LC inhibition (in words): inhibited by mM concentrations

## CCN(CC)Cc1cc(Nc2ccnc3cc(Cl)ccc23)ccc1O [Amodiaquine]
BoNT/A LC [1]
  % Inhibition: 20%
  inhibition at 20 µM: 30%

## COc1cc(C)cc2c(-c3c(O)cc(O)c4c3C[C@@H](C)N[C@@H]4C)cc(-c3cc(-c4c(O)cc(O)c5c4C[C@@H](C)N[C@@H]5C)c4cc(C)cc(OC)c4c3O)c(O)c12 [NSC 661755, Michellamine B]
BoNT/A LC [1]
  effect of added zinc on inhibition of BoNT/A LC: not affected by added zinc
  inhibition at 20 µM: 62%

## Quinidine
BoNT/A LC [1]
  % Inhibition: 9 3%

## CCOC(=O)[C@H](CCc1ccccc1)N[C@@H](C)C(=O)N1CCC[C@H]1C(=O)O [enalapril]
BoNT/A LC [2]
  BoNT/A LC inhibition (in words): inhibited by mM concentrations

## C[C@H](CS)C(=O)N1CCC[C@H]1C(=O)O [captopril]
BoNT/A LC [2]
  BoNT/A LC inhibition (in words): inhibited by mM concentrations

## Quinine
BoNT/A LC [1]
  % Inhibition: 9 3%

## [Ag+] [silver ion]
BoNT/A LC [1]
  effect of addition of DTT on inhibition: immediately reversed inhibition
  effect of zinc in assays on inhibition: no effect
  inhibition of protease activity: about 100%

## CCOc1ccc2c(ccc(/C=C/c3ccc4c(C)ccnc4c3O)[n+]2C)c1 [NSC 86372]
Anthrax lethal factor
  inhibition of anthrax lethal factor (in words): inhibit
[3]
  inhibition of BoNT/B LC protease activity (in words): inhibit
BoNT/A LC [1]
  effect of addition of zinc on inhibition: immediately and quantitatively reversed inhibition
  inhibition at 20 µM: 51%

## CCN(CC)CCCC(C)Nc1c2ccc(Cl)cc2nc2ccc(OC)cc12 (racemic) [Quinacrine (racemic), Quinacrine]
BoNT/A holotoxin
  delay of the time to about 50% muscle paralysis (over control): at least 30%
BoNT/A LC [1]
  inhibition at 20 µM: 30%

## Nc1c(/C=C/c2cc3cc(C4=NCCN4)ccc3o2)[nH]c2cc(C3=NCCN3)ccc12 [NSC 357756]
BoNT/A LC [1]
  inhibition at 20 µM: 57%

## CCN(CC)CCCC(C)Nc1ccnc2cc(Cl)ccc12 (racemic) [Chloroquine (racemic), Chloroquine]
BoNT/A LC [1]
  inhibition at 20 µM: 20%

## Ic1ccc2nc3cc(Nc4ccc5c(c4)nc4ccc(I)cc4[n+]5-c4ccccc4)ccc3[n+](-c3ccccc3)c2c1 [NSC 402959]
BoNT/A LC [1]
  inhibition at 20 µM: 40%

## O=[N+]([O-])c1cc(Cc2cc([N+](=O)[O-])c3cccnc3c2O)c(O)c2ccccc12 [NSC 130796]
Anthrax lethal factor
  inhibition of anthrax lethal factor (in words): inhibit
[3]
  inhibition of BoNT/B LC protease activity (in words): inhibit
BoNT/A LC [1]
  inhibition at 20 µM: 48%
